How the values were obtained:
[1] = system: HT1080-EGFP (human/fibrosarcoma) cells; test: Evaluation of toxicity: LDH assay; type: cell-based; settings: lipid nanoparticle containing siRNA; absorbance relative to control cells without lipid nanoparticle set at 1.00
Experimental: A. Provision of Cells • (i) A liquid medium (DMEM/Ham's F12, FBS+, P/S+) (FBS: fetal bovine serum, P/S: antibiotic) was taken out from a refrigerator and temperature-controlled in an incubator set at 37° C. • (ii) A cryotube containing the cells was taken out from a −80° C. freezer and thawed at once in an incubator set at 37° C. • (iii) A stock solution of the thawed cells was collected in a capped test tube. • (iv) The tube containing the cells was washed with the liquid medium, and the wash was also collected in the test tube. • (v) The tube was subjected to a centrifuge to precipitate the cells. • (vi) The supernatant was aspirated, and the liquid medium was added and gently tapped to disperse the cells. • (vii) A small amount of the cells-dispersed liquid medium was collected, and the number of cells was observed and counted under a microscope. • (viii) The cells were seeded in a 24-well plate such that the number of cells was 2×10^4 cells per well. For the plate for an LDH assay described later, the cells were seeded in a 96-well plate such that the number of cells was 4×10^3 cells per well. • (ix) The 24-well plate or the 96-well plate was placed in an incubator, and the cells were cultured for 24 hours under conditions of 37° C. and 5% CO2.
The introduction of lipid nanoparticles into cells for an LDH assay described later was carried out as follows. • (i) A 96-well plate was taken out from an incubator. • (ii) The liquid medium supernatant in the 96-well plate was aspirated and washed with phosphate buffered saline (PBS). • (iii) 160 μL of a liquid medium containing 10% FBS (FBS+/P/S+) was added to the washed 96-well plate. In addition, 40 μL of an LNP solution having an adjusted concentration was added. • (iv) The 96-well plate was placed in the incubator, and the cells were cultured for 24 hours under conditions of 37° C. and 5% CO2.
For Examples 1 to 9, a CCK-8 assay or an LDH assay was carried out to measure the metabolic activity of viable cells and relatively quantify the number of surviving cells to evaluate the toxicity of lipid nanoparticles.
An LDH assay was carried out by using a viable cell counting kit (DOJINDO LABORATORIES, Cytotoxicity LDH Assay Kit-WST) as follows. • (i) 20 μL of a lysis buffer was added to each of positive control wells and incubated at 37° C. for 30 minutes in an incubator. • (ii) 100 μL of the supernatant was taken from each well and transferred to a 96-well plate for measurement. • (iii) 100 μL of the reagent mixture attached to the kit was added to all the wells, and a color reaction was carried out for 30 minutes at room temperature with exclusion of light. • (iv) 50 μL of the stop solution reagent attached to the kit was added to all the wells. • (v) The 96-well plate was measured under conditions of a measurement wavelength of 490 nm and a target wavelength of 630 nm with a plate reader (manufactured by TECAN, Infinite M200) to calculate the absorbance. The absorbance was calculated with the absorbance of control cells to which no lipid nanoparticle was added set at 1.00. When the obtained value was 0.50 or less, a rating of double-circle (excellent) was given, when the obtained value was more than 0.50 and 1.0 or less, a rating of circle (good) was given, when the obtained value was more than 1.0 and less than 6.0, a rating of triangle (fair) was given, and when the obtained value was 6.0 or more, a rating of X-mark (poor) was given.

[2] = Measurement of particle size, polydispersity index and zeta potential of lipid nanoparticle (Zetasizer); type: physicochemical
How it was run: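 Dialysed LNP solution diluted in ultrapure water; particle size taken as Z-average and PDI by dynamic light scattering (Zetasizer). Zeta potential measured with pH 7.4 Tris-HCl as diluent.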

[3] = siRNA / mRNA encapsulation rate of lipid nanoparticle (RiboGreen); type: physicochemical
How it was run: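 LNP solution was read with RiboGreen (ex 480/em 520 nm) with and without 1% Triton X-100 disruption (2 pmol siRNA or mRNA per 40 μL). Encapsulation (%) = (a−b)/a×100, a = total and b = free RNA signal, each a blank-subtracted mean of three readings.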

[4] = lipid nanoparticle containing siRNA, main lipid/DPPC/cholesterol=45/10/45, Z-average in ultrapure water
[5] = lipid nanoparticle containing siRNA, main lipid/DPPC/cholesterol=45/10/45, ultrapure water
[6] = lipid nanoparticle containing siRNA, pH 7.4 Tris-HCl
[7] = siRNA encapsulation rate of lipid nanoparticle
[8] = mRNA lipid nanoparticle for in vivo experiment, PEG-modified lipid (PEG2000-DMG 1.5 mol %) present
[9] = mRNA lipid nanoparticle for in vivo experiment, PEG-modified lipid absent

| Particle size (nm) [2, 4] [nm] | PDI [2, 5] | Zeta potential (mV) [2, 6] [mV] | Encapsulation rate (%) [3, 7] [%] | PDI [2, 8] | Particle size (nm) [2, 8] [nm] | Zeta potential (mV) [2, 8] [mV] | PDI [2, 9] | Particle size (nm) [2, 9] [nm] | Zeta potential (mV) [2, 9] [mV] | Encapsulation rate (%) [3, 8] [%] | Encapsulation rate (%) [3, 9] [%] | SMILES | LDH Assay [1] |
| --- | --- | --- | --- | --- | --- | --- | --- | --- | --- | --- | --- | --- | --- |
| 117.1 | 0.085 | −7.75 | 95 | – | – | – | – | – | – | – | – | CCCCCCCC/C=C\CCCCCCCCC(CCCCCCC/C=C\CCCCCCCC)OC(=O)C(CC(=O)O)NC(=N)N (stereo not shown) [Comparative Example 2, 3-guanidino-4-(((9Z,27Z)-hexatriaconta-9,27-dien-18-yl)oxy)-4-oxobutanoic acid, reference compound] | ⊚ (When the obtained value was 0.50 or less, a rating of double-circle (excellent) was given) |
| 137.0 | 0.329 | −7.66 | 95 | – | – | – | – | – | – | – | – | CCCCCCCC/C=C\CCCCCCCCC(CCCCCCC/C=C\CCCCCCCC)OC(=O)C(CCC(=O)O)NC(=N)N (stereo not shown) [Comparative Example 3, 4-guanidino-5-(((9Z,27Z)-hexatriaconta-9,27-dien-18-yl)oxy)-5-oxopentanoic acid, reference compound] | Δ (when the obtained value was more than 1.0 and less than 6.0, a rating of triangle (fair) was given) |
| 116.5 | 0.169 | 6.98 | 99 | – | – | – | – | – | – | – | – | CCCCCCCC/C=C\CCCCCCCCC(CCCCCCC/C=C\CCCCCCCC)OC(=O)C(CC(=O)O)NC(=O)C(N)CCCNC(=N)N (stereo not shown) [Example 1, 3-(2-amino-5-guanidinopentanamido)-4-(((9Z,27Z)-hexatriaconta-9,27-dien-18-yl)oxy)-4-oxobutanoic acid] | ⊚ (When the obtained value was 0.50 or less, a rating of double-circle (excellent) was given) |
| 119.7 | 0.099 | 9.59 | 99 | 0.19 | 92.8 | 16.71 | 0.10 | 119.7 | 3.92 | 93.2 | 91.3 | CCCCCCCC/C=C\CCCCCCCCC(CCCCCCC/C=C\CCCCCCCC)OC(=O)C(CCC(=O)O)NC(=O)C(N)CCCNC(=N)N (stereo not shown) [Example 2, 4-(2-amino-5-guanidinopentanamido)-5-(((9Z,27Z)-hexatriaconta-9,27-dien-18-yl)oxy)-5-oxopentanoic acid] | ⊚ (When the obtained value was 0.50 or less, a rating of double-circle (excellent) was given) |
| 103.6 | 0.101 | 15.7 | 100 | – | – | – | – | – | – | – | – | CCCCCCCC/C=C\CCCCCCCCC(CCCCCCC/C=C\CCCCCCCC)OC(=O)C(CO)NC(=O)C(N)CCCNC(=N)N [Example 4, (9Z,27Z)-hexatriaconta-9,27-dien-18-yl (2S)-2-((S)-2-amino-5-guanidinopentanamido)-3-hydroxypropionate] | Δ (when the obtained value was more than 1.0 and less than 6.0, a rating of triangle (fair) was given) |
| 109.2 | 0.084 | 15.2 | 100 | – | – | – | – | – | – | – | – | CCCCCCCC/C=C\CCCCCCCCC(CCCCCCC/C=C\CCCCCCCC)OC(=O)C(NC(=O)C(N)CCCNC(=N)N)C(C)O [Example 5, (9Z,27Z)-hexatriaconta-9,27-dien-18-yl (2S)-2-((S)-2-amino-5-guanidinopentanamido)-3-hydroxybutanoate] | ⊚ (When the obtained value was 0.50 or less, a rating of double-circle (excellent) was given) |
| 125.9 | 0.118 | 21.9 | 100 | – | – | – | – | – | – | – | – | CCCCCCCC/C=C\CCCCCCCCC(CCCCCCC/C=C\CCCCCCCC)OC(=O)[C@H](CCSC)NC(=O)[C@@H](N)CCCNC(=N)N (stereo partly shown) [Example 6, (9Z,27Z)-hexatriaconta-9,27-dien-18-yl arginylmethioninate] | ◯ (when the obtained value was more than 0.50 and 1.0 or less, a rating of circle (good) was given) |
